System: mice
Assay: Neuropharmacological Assay (SmartCube)
Assay type: in vivo
Details: i.p. 15 min before behavioral test; 3 doses, most efficacious dose(s) presented

SMILES | AD: ADHD (probability of class match) | AG: analgesic (probability of class match) | AX: anxiolytic (probability of class match) | CE: cognitive enhancer (probability of class match) | DP: anti-depressant (probability of class match) | HA: hallucinogen (probability of class match) | MS: mood stabilizer (probability of class match) | PS: anti-psychotic (probability of class match) | SD: sedative hypnotic (probability of class match) | UN: uncharacterized CNS activity (probability of class match) | XG: anxiogenic (probability of class match)
CN1CCC2(CC1)OCCn1nc3ccccc3c12.Cl [Compound 24, 1′-methyl-3,4-dihydrospiro[[1,4]oxazino[4,3-b]indazole-1,4′-piperidin]-1′-ium chloride] | + (LOQ≦ + <5%) | ++ (5%≦ ++ <25%) | ++ (5%≦ ++ <25%) | ++ (5%≦ ++ <25%) | ++ (5%≦ ++ <25%) | + (LOQ≦ + <5%) | + (LOQ≦ + <5%) | ++ (5%≦ ++ <25%) | + (LOQ≦ + <5%) | + (LOQ≦ + <5%) | + (LOQ≦ + <5%)
CN1CCO[C@@H]([C@@H]2OCCn3nc4ccccc4c32)C1 [Compound 25, (2R)-2-((R)-3,4-dihydro-1H-[1,4]oxazino[4,3-b]indazol-1-yl)-4-methylmorpholin-4-ium chloride] | ++ (5%≦ ++ <25%) | ++ (5%≦ ++ <25%) | ++ (5%≦ ++ <25%) | + (LOQ≦ + <5%) | ++ (5%≦ ++ <25%) | + (LOQ≦ + <5%) | + (LOQ≦ + <5%) | + (LOQ≦ + <5%) | + (LOQ≦ + <5%) | + (LOQ≦ + <5%) | + (LOQ≦ + <5%)
CN1CCO[C@@H]([C@H]2OCCn3nc4ccccc4c32)C1 [Compound 26, (2R)-2-((S)-3,4-dihydro-1H-[1,4]oxazino[4,3-b]indazol-1-yl)-4-methylmorpholin-4-ium chloride] | + (LOQ≦ + <5%) | ++ (5%≦ ++ <25%) | + (LOQ≦ + <5%) | + (LOQ≦ + <5%) | ++ (5%≦ ++ <25%) | + (LOQ≦ + <5%) | + (LOQ≦ + <5%) | + (LOQ≦ + <5%) | + (LOQ≦ + <5%) | + (LOQ≦ + <5%) | + (LOQ≦ + <5%)
CC(C)N(C)CC1OCCn2nc3ccccc3c21.Cl (stereo not drawn) [Compound 27, N-((3,4-dihydro-1H-[1,4]oxazino[4,3-b]indazol-1-yl)methyl)-N-methylpropan-2-aminium chloride] | + (LOQ≦ + <5%) | ++ (5%≦ ++ <25%) | + (LOQ≦ + <5%) | + (LOQ≦ + <5%) | ++++ (50%≦ ++++) | + (LOQ≦ + <5%) | + (LOQ≦ + <5%) | + (LOQ≦ + <5%) | + (LOQ≦ + <5%) | + (LOQ≦ + <5%) | + (LOQ≦ + <5%)
CCN(C)CC1OCCn2nc3ccccc3c21.Cl (stereo not drawn) [Compound 28, N-((3,4-dihydro-1H-[1,4]oxazino[4,3-b]indazol-1-yl)methyl)-N-methylethanaminium chloride] | + (LOQ≦ + <5%) | + (LOQ≦ + <5%) | ++ (5%≦ ++ <25%) | ++ (5%≦ ++ <25%) | ++++ (50%≦ ++++) | ++ (5%≦ ++ <25%) | + (LOQ≦ + <5%) | + (LOQ≦ + <5%) | + (LOQ≦ + <5%) | ++ (5%≦ ++ <25%) | + (LOQ≦ + <5%)
CN(CC1OCCn2nc3ccccc3c21)C1CCC1.Cl (stereo not drawn) [Compound 29, N-((3,4-dihydro-1H-[1,4]oxazino[4,3-b]indazol-1-yl)methyl)-N-methylcyclobutanaminium chloride] | + (LOQ≦ + <5%) | + (LOQ≦ + <5%) | ++ (5%≦ ++ <25%) | ++ (5%≦ ++ <25%) | +++ (25%≦ +++ <50%) | ++ (5%≦ ++ <25%) | + (LOQ≦ + <5%) | + (LOQ≦ + <5%) | + (LOQ≦ + <5%) | + (LOQ≦ + <5%) | + (LOQ≦ + <5%)
c1ccc2c3n(nc2c1)CCOC3C1CCNCC1 (stereo not drawn) [Compound 35, 4-(3,4-dihydro-1H-[1,4]oxazino[4,3-b]indazol-1-yl)piperidin-1-ium chloride] | + (LOQ≦ + <5%) | + (LOQ≦ + <5%) | + (LOQ≦ + <5%) | + (LOQ≦ + <5%) | + (LOQ≦ + <5%) | + (LOQ≦ + <5%) | + (LOQ≦ + <5%) | + (LOQ≦ + <5%) | + (LOQ≦ + <5%) | + (LOQ≦ + <5%) | + (LOQ≦ + <5%)
c1ccc2c3n(nc2c1)CCOC31CCNCC1 [Compound 36, 3′,4′-dihydrospiro[piperidine-4,1′-[1,4]oxazino[4,3-b]indazol]-1-ium chloride] | + (LOQ≦ + <5%) | ++ (5%≦ ++ <25%) | ++ (5%≦ ++ <25%) | ++ (5%≦ ++ <25%) | +++ (25%≦ +++ <50%) | + (LOQ≦ + <5%) | + (LOQ≦ + <5%) | ++ (5%≦ ++ <25%) | ++ (5%≦ ++ <25%) | ++ (5%≦ ++ <25%) | + (LOQ≦ + <5%)
Cl.c1ccc2c3n(nc2c1)CCOC31CN2CCC1C2 (stereo not drawn) [Compound 37, 3′,4′-dihydro-4-azaspiro[bicyclo[2.2.1]heptane-2,1′-[1,4]oxazino[4,3-b]indazol]-4-ium chloride] | + (LOQ≦ + <5%) | ++ (5%≦ ++ <25%) | ++ (5%≦ ++ <25%) | ++ (5%≦ ++ <25%) | ++ (5%≦ ++ <25%) | + (LOQ≦ + <5%) | + (LOQ≦ + <5%) | ++ (5%≦ ++ <25%) | ++ (5%≦ ++ <25%) | +++ (25%≦ +++ <50%) | + (LOQ≦ + <5%)
Cl.c1ccc2c3n(nc2c1)CCOC3[C@H]1CCCNC1 (stereo partly drawn) [Compound 38, (3S)-3-(3,4-dihydro-1H-[1,4]oxazino[4,3-b]indazol-1-yl)piperidin-1-ium] | + (LOQ≦ + <5%) | ++ (5%≦ ++ <25%) | ++ (5%≦ ++ <25%) | + (LOQ≦ + <5%) | + (LOQ≦ + <5%) | + (LOQ≦ + <5%) | ++ (5%≦ ++ <25%) | ++ (5%≦ ++ <25%) | + (LOQ≦ + <5%) | + (LOQ≦ + <5%) | + (LOQ≦ + <5%)
CC1(CN)OCCn2nc3ccccc3c21.Cl (stereo not drawn) [Compound 39, (1-methyl-3,4-dihydro-1H-[1,4]oxazino[4,3-b]indazol-1-yl)methanaminium chloride] | + (LOQ≦ + <5%) | + (LOQ≦ + <5%) | ++ (5%≦ ++ <25%) | + (LOQ≦ + <5%) | ++ (5%≦ ++ <25%) | + (LOQ≦ + <5%) | + (LOQ≦ + <5%) | + (LOQ≦ + <5%) | + (LOQ≦ + <5%) | + (LOQ≦ + <5%) | + (LOQ≦ + <5%)
c1ccc2c3n(nc2c1)CCOC31CNC1 [Compound 40, 3′,4′-dihydrospiro[azetidine-3,1′-[1,4]oxazino[4,3-b]indazol]-1-ium chloride] | + (LOQ≦ + <5%) | ++ (5%≦ ++ <25%) | +++ (25%≦ +++ <50%) | ++ (5%≦ ++ <25%) | ++ (5%≦ ++ <25%) | + (LOQ≦ + <5%) | + (LOQ≦ + <5%) | ++ (5%≦ ++ <25%) | ++ (5%≦ ++ <25%) | + (LOQ≦ + <5%) | + (LOQ≦ + <5%)

Reference: patent US9758529B2, “Fused dihydro-4H-pyrazolo[5,1-C][1,4]oxazinyl compounds and analogs for treating CNS disorders” (Sunovion Pharmaceuticals Inc., priority 2015, dated 2017)
